From US7858125B2, “Multi-component biocide composition for wood protection” (priority 2006, dated 2010)

Tests used:
[1] = system: Coptotermes formosans; experiment: Termite bioassay, no-choice test procedure; format: in vivo; conditions: dip-treated southern yellow pine blocks, 1 gram of termites, four weeks, 27° C., 80% RH
Description: In this Example, various concentrations of a biocide composition were evaluated for its ability to inhibit termite infestation. The ability of the biocide composition was then compared to the ability of disodium octaborate tetrahydrate, a borate component, alone and an untreated control to inhibit termite infestation. Specifically, samples of the subterranean termite, Coptotermes formosans, were collected at the Formosan Termite Research Facility at McNeill, Miss. for a termite bioassay. To begin the termite bioassay, pre-weighed and pre-conditioned southern yellow pine blocks (1×1×1 centimeter) (n=5) were dip-treated with two concentrations of a biocide composition. A first control sample (Control A) was prepared by dipping blocks into DI water. A second control sample (Control B) was prepared by dipping the blocks into 0.28% (by weight) disodium octaborate tetrahydrate. […] Each block was conditioned to ensure all solvent had dissipated prior to being subjected to a termite bioassay according to no-choice test procedure (ASTM 1998). […] Damp filter paper was placed into the lid of each dish to help maintain humidity during a four-week incubation at 27° C. and 80% relative humidity. The dishes were examined daily and mortality of the termites was recorded. […]

[2] = system: mixed spore preparation of Aspergillus niger, Penicillium chrysogenum and Trichoderma viride; experiment: Mold resistance of dip-treated wood stakes (ASTM D4445-91), mixed mold spore inoculum; format: cell-based; conditions: Example 4; unseasoned southern yellow pine stakes dip-treated 15 s, 4 weeks, 27° C., 70% RH; scale 0-5
Text: The biocide compositions were first tested for the efficacy in preventing mold fungal growth. The mold fungi used in the mold growth analysis included Aspergillus niger 2.242 (available from University of Virginia, Charlottesville, Va.), Penicillium chrysogenum PH02 (an isolate provided by Forest Products Laboratory, Madison, Wis.) and Trichoderma viride ATCC 20476 (available from American Type Culture Collection, Rockville, Md.). The mold fungi were first prepared by growing the various mold fungi species on 2% malt agar. A mixed spore preparation was then prepared by washing the surface of a 2-week old culture of each fungus with 10 milliliters of sterile deionized (DI) water according to the American Society for Testing and Materials (ASTM) standard D4445-91 (1998). Spore suspensions were transferred to a spray bottle and diluted to 100 milliliters with DI water. The spray bottle was adjusted to deliver 1 milliliter inoculum/spray.
Specimens (7×20 millimeters cross section by 7 centimeters long) were cut from unseasoned southern yellow pine mill ends from a Mississippi sawmill and stored at 0° C. Average moisture content of the specimens was 48% by weight (n=3). Southern yellow pine oriented strand board (OSB) specimens (11×20 millimeters cross section by 7 centimeters long) were cut from a full sheet of OSB and conditioned to 70% relative humidity. Five replicate specimen stakes were dip-treated for approximately 15 seconds in each biocide composition and held in a covered container overnight according to the ASTM standard test method D4445-91 (1998). Specimens were then arranged over four layers of blotting paper that was saturated with 30 milliliters DI water and a polyethylene mesh spacer in sterile disposable Petri dishes (150×25 millimeters) (commercially available from B-D Falcon, Los Angeles, Calif.). Untreated stakes were dipped in DI water and served as Control A for water-based test chemicals. Additional stakes were dipped in 70% (by weight) ethanol to serve as Control B for test chemicals of low solubility. […]

[3] = system: Reticulotermes flavipes (Kollar); experiment: Termite bioassay, no-choice test procedure; format: in vivo; conditions: dip-treated southern yellow pine blocks, four weeks; for Termite Bioassay Mortality Rating: 1 gram of termites, 27° C., 80% RH; for Termite Bioassay Attack Rating: visual rating 10 (no attack), 9 light, 7 moderate, 4 heavy, 0 (complete failure)
Text: The biocide compositions were additionally evaluated for their ability to inhibit termite infestation. Specifically, numerous samples of the subterranean termite, Reticulotermes flavipes (Kollar), were collected in Janesville, Wis. for a termite bioassay.
To begin the termite bioassay, pre-weighed and pre-conditioned southern yellow pine blocks (1×1×1 centimeter) (n=5) were dip-treated with either the biocide compositions prepared above or the individual components. Five control samples were prepared by dipping blocks into DI water.
Each block was conditioned to ensure all solvent had dissipated prior to being subjected to a termite bioassay according to no-choice test procedure (ASTM 1998). Each block was then placed in a lidded test dish with 50 grams sand, […] of DI water, and 1 gram of termites. The dishes were incubated at 27° C. and 80% relative humidity for four weeks. The dishes were examined after one and four weeks for tunneling and mortality. The mortality was scaled using a label of “none” (representing a mortality rating of 0%); “slight” (representing a mortality rating of from 1% to 33%); “moderate” (representing a mortality rating of from 34% to 66%) “heavy” (representing a mortality rating of from 67% to 99%); or “complete” (representing a mortality rating of 100%). At the end of the four-week test period, the blocks were removed from the dishes, cleaned, dried, re-conditioned and weighed to determine weight loss of the block, indicating the relative wood consumption of the block by the termites. Additionally, a visual rating of 10 (representing no attack); 9 (representing a light attack); 7 (representing a moderate attack); 4 (representing a heavy attack); or 0 (representing complete failure in inhibiting termite infestation), was recorded for each sample block.

[4] = system: P. placenta; experiment: Soil block test (AWPA E-10-01), brown-rot decay; format: cell-based, Postia placenta MAD 698; conditions: vacuum-treated southern yellow pine blocks, 12 weeks (Example 1 text; Example 4, FIG. 1)
Description: (§1) In addition to the mold fungi analysis above, the biocide compositions were tested for their efficacy in preventing decay fungal growth. The decay fungi used in the decay fungal growth analysis included Postia placenta MAD 698 (Fries) Lars. & Lomb., Gloeophyllum trabeum MAD 617 (Pers:Fries) Murrill, and Coriolus versicolor MAD 697 (L.:Fr.) Pilat. The decay fungi, all obtained from the Center of Forest Mycology Research (Forest Products Laboratory, Madison, Wis.) were maintained on 2% malt agar.
(§2) To test the biocide compositions' abilities to inhibit decay fungal growth, soil block culture bottles were prepared according to American Wood Preservers' Association (AWPA) E-10-01 (2003). Southern yellow pine feeders were inoculated with two brown-rot fungus, P. placenta and G. trabeum and maple feeders were inoculated with one white-rot fungus, C. versicolor. Bottles were incubated at 27° C. and 70% relative humidity for three weeks until the fungus completely colonized each feeder. […] The blocks were weighed and the average percentage weight loss was calculated. […]
(§3) To test the biocide compositions' abilities to inhibit decay fungal growth, soil block culture bottles were first prepared according to American Wood Preservers' Association (AWPA) E-10-01 (2003). […] The blocks were weighed and the average percentage weight loss was calculated.

[5] = system: G. trabeum; experiment: Soil block test (AWPA E-10-01), brown-rot decay; format: cell-based, Gloeophyllum trabeum MAD 617; conditions: vacuum-treated southern yellow pine blocks, 12 weeks (Example 1 text; Example 4, FIG. 1)
Description: as §1, §2, §3

[6] = system: C. versicolor; experiment: Soil block test (AWPA E-10-01), white-rot decay; format: cell-based, Coriolus versicolor MAD 697; conditions: vacuum-treated southern yellow pine blocks, 12 weeks (Example 1 text; Example 4, FIG. 1)
Description: as §1, §2, §3

Row | Molecule | Average Weight Loss (%) [1] [%] | Mold Resistance Average Rating, Southern Pine [2] | Termite Bioassay Mortality Rating [3] | Termite Bioassay Attack Rating [3] | Inhibition of decay by P. placenta, in words [4] | Inhibition of decay by G. trabeum, in words [5] | Inhibition of decay by C. versicolor, in words [6]
1 | O.O.O.O.O=BOB1OB(OB=O)OB2OB([O-])OB([O-])OB(O1)O2.[Na+].[Na+] [Control B, disodium octaborate tetrahydrate] | 4.20 |  |  |  |  |  | 
2 | C[C@@H](c1ncncc1F)[C@](O)(Cn1cncn1)c1ccc(F)cc1F [E, Voriconazole] |  | 0.04 | None | 0.0 |  |  | 
3 | CC(C)c1cccc(O)c(=O)c1 [G, Thujaplicin (isopropyltropolone)] |  | 3.2 | None | 0.0 |  |  | 
4 | Thujaplicin (isopropyltropolone) |  |  |  |  | did not inhibit decay | did not inhibit decay | did not inhibit decay
5 | c1ccc2[nH]c(-c3cscn3)nc2c1 [F, Thiabendazole] |  | 0.0 | None | 0.0 |  |  | 
